Legend:
[1] = system: children with moderate to severe ADHD; test: Example 1: 4-week placebo-controlled study of modafinil in children with ADHD; format: in vivo, human; conditions: for ADHD symptoms, primary outcome measure (teacher rated ADHD Rating Scale-IV): vs placebo
Experimental: A group of 248 children (average age: 9 years, average weight: 35.5 kilograms) were studied to determine the effect of modafinil on ADHD.
After a 1 week washout period, children with moderate to severe ADHD received 4 weeks of treatment with placebo or modafinil in split morning/midday dosages of 100/200 mg, 200/100 mg, a single 300 mg dose, and 200/200 mg (400 mg total). Randomization called for equal distribution of the children by weight, except for the 200/200 mg dose group, which contained only children having a weight greater than or equal to 30 kg. The primary efficacy measure was the teacher rated ADHD Rating Scale-IV.

[2] = system: ADHD patients; test: Example 2: 2-week fixed-dose study of 340 mg and 425 mg in children with ADHD; format: in vivo, human; conditions: 340 mg (<30 kg) or 425 mg (>=30 kg) single dose per day, 2 weeks, baseline score 46.3
Experimental: Safety and efficacy of the fixed doses of 340-mg and 425-mg were evaluated following a 2-week dosing period (1-week of titration and 1-week at steady state). The 340-mg dose was administered to children weighing <30 kg, and the 425-mg dose was administered to children weighing ≧30 kg.
The 24 children enrolled in this study were predominately male (17M:7F) and predominately white (13W:9B:2Other). The average age (9.0 yrs), weight (32.9 kg) and height (133.7 cm) were similar to those seen in previous ADHD trials in children. The children <30 and ≧30 kg were approximately equaled divided. The average Attention Deficit Hyperactivity Disorder Rating Scale (ADHD-RS) total score at baseline was 46.3.

[3] = human blood plasma concentration curve of modafinil; format: in vivo
Experimental: FIG. 1 represents a human blood plasma concentration curve of modafinil after an initial dose of 100 mg of modafinil followed 4 hours later by a 200 mg dose of modafinil.
FIG. 2 represents a human blood plasma concentration curve of modafinil after an initial dose of 200 mg of modafinil followed 4 hours later by a 100 mg dose of modafinil.
FIG. 3 represents a human blood plasma concentration curve of modafinil after a single dose of 300 mg of modafinil.
FIG. 4 represents a human blood plasma concentration curve of modafinil after a single dose of 100 mg of modafinil.

NC(=O)C[S+]([O-])C(c1ccccc1)c1ccccc1 (centres unmarked) [modafinil, 2-[(diphenylmethyl)sulfinyl]acetamide]
adverse event profile ([1]; 400 mg of modafinil (200/200 mg) vs the other doses): higher adverse event profile than the other doses | safety and tolerability ([1]; children, 4 weeks of treatment, 300 to 400 mg total daily): safe and generally well tolerated | ADHD symptoms, primary outcome measure (teacher rated ADHD Rating Scale-IV) ([1]; children, single 300 mg once daily dose, 4 weeks of treatment): significantly improved ADHD symptoms | ADHD symptoms, primary outcome measure (teacher rated ADHD Rating Scale-IV) ([1]; children, split morning/midday dose 200/100 mg, 4 weeks of treatment): significantly improved ADHD symptoms | improvement of ADHD-RS total score from baseline [2]: ~70% | blood concentrations of modafinil, amount less than predicted ([3]; single dose of 300 mg vs extrapolation of 100 mg unit dose data, FIG. 3): 20-30% | time post administration at which the blood level of modafinil begins to decrease ([3]; single dose of 300 mg, FIG. 3): about 2 hours | time post administration at which the blood plasma concentration of modafinil begins to decrease ([3]; split dose 100 mg then 200 mg or 200 mg then 100 mg 4 hours later, FIGS. 1 and 2): about two

Reference: patent US8859621B2, “Pharmaceutical formulations of modafinil” (Cephalon, Inc., priority 2002, dated 2014)
